Laboratory results reported in paper PMC10815238, “New N-Terminal Fatty-Acid-Modified Melittin Analogs with Potent Biological Activity” (International Journal of Molecular Sciences, 2024).

Tests used:
[1] = tested on: S. aureus ATCC 43300; assay: Salt sensitivity (MIC in the presence of physiological salts); assay type: cell-based, Staphylococcus aureus; design: key: MIC in μg/mL (two-fold dilutions 256 to 0.25 μg/mL); settings: for MIC, MgCl2: 1 mM MgCl2, unit not given in Table 4; for MIC, FeCl3: 4 mM FeCl3, unit not given in Table 4; for MIC, KCl: 4.5 mM KCl; for MIC, KCl / MIC, NaCl: unit not given in Table 4; for MIC, NaCl: 150 mM NaCl; for MIC, Control: no added salt, unit not given in Table 4 (Table 3 MIC in μg/mL)
Experimental: (§1) MIC was determined using the broth microdilution method with minor modification. In brief, bacteria (S. aureus ATCC 43300, E. faecalis ATCC 29212, E. coli ATCC 25922, P. aeruginosa ATCC 27853, L. monocytogenes CVCC 3764, B. cereus CVCC 4101, S. Castellani CGMCC 1.1869, and the multidrug-resistant E. coli strain) were cultured in nutrient broth (NB) medium (Macklin, Shanghai, China) to the logarithmic phase and diluted to 1 × 10^6 colony forming units (CFUs)/mL. The MDLs were dissolved to a final concentration of 256~0.25 μg/mL in NB medium using two-fold dilutions. A total of 50 μL of different concentrations of the MDL solutions and an equal volume of bacterial suspension were added to a 96-well plate, which was then incubated at 37 °C for 18 h. The minimum concentrations of the MDLs with no visible growth of bacteria were defined as the corresponding MICs. Media containing bacteria without the MDLs were set as the negative control. Each measurement was performed independently three times.
(§2) This was carried out in triplicate and tested at least twice.

[2] = tested on: E. coli ATCC 25922; assay: as above; assay type: cell-based, Escherichia coli; design: key to MIC, NaCl / MIC, KCl / MIC, MgCl2: MIC in μg/mL (two-fold dilutions 256 to 0.25 μg/mL); settings: for MIC, MgCl2: 1 mM MgCl2, unit not given in Table 4; for MIC, FeCl3: 4 mM FeCl3, unit not given in Table 4; for MIC, KCl: 4.5 mM KCl; for MIC, KCl / MIC, NaCl: unit not given in Table 4; for MIC, NaCl: 150 mM NaCl; for MIC, Control: no added salt, unit not given in Table 4 (Table 3 MIC in μg/mL)
Experimental: as §1, §2

[3] = Hydrophobicity assay (RP-HPLC retention time); assay type: physicochemical; settings: chromatographic, ChromCore120 C18 column 4.6 x 250 mm 5 μm; 0.1 mg/mL in deionized water; A 0.1% TFA in water, B 0.1% TFA in acetonitrile; 5% B to 90% B over 30 min; 1 mL/min; UV 220 nm; three independent experiments
Excerpt: The hydrophobicity, amphipathicity, and positive charge distribution of lipopeptides are crucial for their antimicrobial activities. Among these, hydrophobicity has been deemed essential for promoting a hydrophobic interaction with the lipid bilayer, leading to membrane disruption, cytoplasm leakage, and eventual cell death. Lipopeptides with different peptide sequences and chain lengths usually show different hydrophobicities, generating different RTs in the RP-HPLC analysis. The more hydrophobic the lipopeptide, the longer the RT on the column.
Each MDL was dissolved and diluted to 0.1 mg/mL in deionized water (obtained in-house) and then subjected to RP-HPLC on a ChromCore120 C18 column (4.6 × 250 mm, 5 μm) (NanoChrom, Suzhou, China) using 0.1% trifluoroacetic acid (TFA) (Macklin, Shanghai, China) in water as solvent A and 0.1% TFA in acetonitrile (Merck, Darmstadt, Germany) as solvent B. The elution gradient was as follows: 5% B to 90% B over 30 min, 90% B maintained for 2 min, and 90% B to 5% B over 1 min. The flow rate was 1 mL/min and measurements were taken at 220 nm. The retention time was recorded for each MDL.

[4] = CD measurements of secondary structure; assay type: physicochemical; settings: 0.5 mg/mL, 25 °C
Experimental: The CD spectra of the MDLs were measured at 25 °C on a Chirascan spectrometer (Applied Photophysics, Surrey, UK) using a quartz cell with a 1.0 mm path length, recording from 180 to 260 nm. A scanning speed of 50 nm/min was used and the bandwidth was 1 nm. The optical path and slit width were 0.1 cm and 0.1 nm, respectively. […], 50% TFE (Macklin, Shanghai, China) was used to mimic the hydrophobic condition of the microbial membrane, and 25 mM SDS (Macklin, Shanghai, China) micelles were used to mimic the negatively charged prokaryotic membrane. The observed ellipticity was converted to molar ellipticity using the following equation: θ=θobs(MRW/10×c×l) where [θ] is the molar ellipticity (deg·cm^2·dmol^−1), θobs is the observed ellipticity corrected for the buffer at a given wavelength (mdeg), MRW is the mean residual molecular weight (molecular weight/number of amino acids), c is the peptide concentration (mg/mL), and l is the path length (cm). Assuming lipopeptides were a two-state model, the percentage in the α-helix structure of the MDLs was calculated using the following equation: α-helical content=−([θ]222 +2000)/30,000×100%

| SMILES | MIC, MgCl2 [1] | MIC, FeCl3 [1] | MIC, KCl [1] | MIC, NaCl [1] | MIC, Control [1] | MIC, MgCl2 [2] | MIC, FeCl3 [2] | MIC, KCl [2] | MIC, NaCl [2] | MIC, Control [2] | RT, Min (RP-HPLC retention time, measure of hydrophobicity) [3] [min] | α-Helix, % ([4]; 25 mM SDS) [%] | β-Fold, % ([4]; 25 mM SDS) [%] | α-Helix, % ([4]; 50% TFE) [%] | β-Fold, % ([4]; 50% TFE) [%] | α-Helix, % ([4]; PBS Buffer) [%] | β-Fold, % ([4]; PBS Buffer) [%] |
| --- | --- | --- | --- | --- | --- | --- | --- | --- | --- | --- | --- | --- | --- | --- | --- | --- | --- |
| CCCC(=O)NCC(=O)N[C@H](C(=O)NCC(=O)N[C@@H](C)C(=O)N[C@H](C(=O)N[C@@H](CC(C)C)C(=O)N[C@@H](CCCCN)C(=O)N[C@H](C(=O)N[C@@H](CC(C)C)C(=O)N[C@H](C(=O)N[C@H](C(=O)NCC(=O)N[C@@H](CC(C)C)C(=O)N1CCC[C@H]1C(=O)N[C@@H](C)C(=O)N[C@@H](CC(C)C)C(=O)N[C@H](C(=O)N[C@@H](CO)C(=O)N[C@@H](Cc1c[nH]c2ccccc12)C(=O)N[C@H](C(=O)N[C@@H](CCCCN)C(=O)N[C@@H](CCCNC(=N)N)C(=O)N[C@@H](CCCCN)C(=O)N[C@@H](CCCNC(=N)N)C(=O)N[C@@H](CCC(N)=O)C(=O)N[C@@H](CCC(N)=O)C(N)=O)[C@@H](C)CC)[C@@H](C)CC)[C@@H](C)O)[C@@H](C)O)C(C)C)C(C)C)[C@@H](C)CC [Peptide C4-Mel] | 16 | 16 | 4 | 2 | 2 | 32 | 32 | 16 | 8 | 8 | 13.704 ± 0.005 | 19.3 | 23.8 | 20.7 | 25.4 | 6.1 | 33.7 |
| CC[C@H](C)[C@H](NC(=O)CNC(C)=O)C(=O)NCC(=O)N[C@@H](C)C(=O)N[C@H](C(=O)N[C@@H](CC(C)C)C(=O)N[C@@H](CCCCN)C(=O)N[C@H](C(=O)N[C@@H](CC(C)C)C(=O)N[C@H](C(=O)N[C@H](C(=O)NCC(=O)N[C@@H](CC(C)C)C(=O)N1CCC[C@H]1C(=O)N[C@@H](C)C(=O)N[C@@H](CC(C)C)C(=O)N[C@H](C(=O)N[C@@H](CO)C(=O)N[C@@H](Cc1c[nH]c2ccccc12)C(=O)N[C@H](C(=O)N[C@@H](CCCCN)C(=O)N[C@@H](CCCNC(=N)N)C(=O)N[C@@H](CCCCN)C(=O)N[C@@H](CCCNC(=N)N)C(=O)N[C@@H](CCC(N)=O)C(=O)N[C@@H](CCC(N)=O)C(N)=O)[C@@H](C)CC)[C@@H](C)CC)[C@@H](C)O)[C@@H](C)O)C(C)C)C(C)C [Peptide C2-Mel] | 16 | 16 | 4 | 4 | 4 | 32 | 32 | 16 | 16 | – | 12.247 ± 0.021 | 20.9 | 19.9 | 26.5 | 17.8 | 6 | 32.8 |
| CCCCCC(=O)NCC(=O)N[C@H](C(=O)NCC(=O)N[C@@H](C)C(=O)N[C@H](C(=O)N[C@@H](CC(C)C)C(=O)N[C@@H](CCCCN)C(=O)N[C@H](C(=O)N[C@@H](CC(C)C)C(=O)N[C@H](C(=O)N[C@H](C(=O)NCC(=O)N[C@@H](CC(C)C)C(=O)N1CCC[C@H]1C(=O)N[C@@H](C)C(=O)N[C@@H](CC(C)C)C(=O)N[C@H](C(=O)N[C@@H](CO)C(=O)N[C@@H](Cc1c[nH]c2ccccc12)C(=O)N[C@H](C(=O)N[C@@H](CCCCN)C(=O)N[C@@H](CCCNC(=N)N)C(=O)N[C@@H](CCCCN)C(=O)N[C@@H](CCCNC(=N)N)C(=O)N[C@@H](CCC(N)=O)C(=O)N[C@@H](CCC(N)=O)C(N)=O)[C@@H](C)CC)[C@@H](C)CC)[C@@H](C)O)[C@@H](C)O)C(C)C)C(C)C)[C@@H](C)CC [Peptide C6-Mel] | 8 | 8 | 2 | – | – | 16 | 16 | 8 | 4 | 4 | 15.567 ± 0.006 | 18.4 | – | 22.4 | – | 6.5 | – |
| CCCCCCCC(=O)NCC(=O)N[C@H](C(=O)NCC(=O)N[C@@H](C)C(=O)N[C@H](C(=O)N[C@@H](CC(C)C)C(=O)N[C@@H](CCCCN)C(=O)N[C@H](C(=O)N[C@@H](CC(C)C)C(=O)N[C@H](C(=O)N[C@H](C(=O)NCC(=O)N[C@@H](CC(C)C)C(=O)N1CCC[C@H]1C(=O)N[C@@H](C)C(=O)N[C@@H](CC(C)C)C(=O)N[C@H](C(=O)N[C@@H](CO)C(=O)N[C@@H](Cc1c[nH]c2ccccc12)C(=O)N[C@H](C(=O)N[C@@H](CCCCN)C(=O)N[C@@H](CCCNC(=N)N)C(=O)N[C@@H](CCCCN)C(=O)N[C@@H](CCCNC(=N)N)C(=O)N[C@@H](CCC(N)=O)C(=O)N[C@@H](CCC(N)=O)C(N)=O)[C@@H](C)CC)[C@@H](C)CC)[C@@H](C)O)[C@@H](C)O)C(C)C)C(C)C)[C@@H](C)CC [Peptide C8-Mel] | 8 | 8 | – | 0.5 | 0.5 | 8 | 8 | 8 | 2 | 2 | 17.845 ± 0.013 | 18.2 | – | 18.8 | – | 7 | – |
| CCCCCCCCCC(=O)NCC(=O)N[C@H](C(=O)NCC(=O)N[C@@H](C)C(=O)N[C@H](C(=O)N[C@@H](CC(C)C)C(=O)N[C@@H](CCCCN)C(=O)N[C@H](C(=O)N[C@@H](CC(C)C)C(=O)N[C@H](C(=O)N[C@H](C(=O)NCC(=O)N[C@@H](CC(C)C)C(=O)N1CCC[C@H]1C(=O)N[C@@H](C)C(=O)N[C@@H](CC(C)C)C(=O)N[C@H](C(=O)N[C@@H](CO)C(=O)N[C@@H](Cc1c[nH]c2ccccc12)C(=O)N[C@H](C(=O)N[C@@H](CCCCN)C(=O)N[C@@H](CCCNC(=N)N)C(=O)N[C@@H](CCCCN)C(=O)N[C@@H](CCCNC(=N)N)C(=O)N[C@@H](CCC(N)=O)C(=O)N[C@@H](CCC(N)=O)C(N)=O)[C@@H](C)CC)[C@@H](C)CC)[C@@H](C)O)[C@@H](C)O)C(C)C)C(C)C)[C@@H](C)CC [Peptide C10-Mel] | 32 | 32 | 8 | 2 | 2 | 32 | 32 | 16 | 8 | 8 | 20.541 ± 0.029 | 17.1 | 28.8 | 18.4 | 22.1 | 7.5 | 41.1 |
